# Positions count from the first letter of the chain named.
# Assays:
# [1] = biological target: T1, Muscarinic acetylcholine receptor M1 (Homo sapiens, UniProt P11229); assay: Positive allosteric modulation of human muscarinic acetylcholine M1 receptor expressed in CHO cells assessed as potentiation of acetylcholine-induced calcium mobilization; format: functional, cell-based
# T1 sequence (P11229 whole entry): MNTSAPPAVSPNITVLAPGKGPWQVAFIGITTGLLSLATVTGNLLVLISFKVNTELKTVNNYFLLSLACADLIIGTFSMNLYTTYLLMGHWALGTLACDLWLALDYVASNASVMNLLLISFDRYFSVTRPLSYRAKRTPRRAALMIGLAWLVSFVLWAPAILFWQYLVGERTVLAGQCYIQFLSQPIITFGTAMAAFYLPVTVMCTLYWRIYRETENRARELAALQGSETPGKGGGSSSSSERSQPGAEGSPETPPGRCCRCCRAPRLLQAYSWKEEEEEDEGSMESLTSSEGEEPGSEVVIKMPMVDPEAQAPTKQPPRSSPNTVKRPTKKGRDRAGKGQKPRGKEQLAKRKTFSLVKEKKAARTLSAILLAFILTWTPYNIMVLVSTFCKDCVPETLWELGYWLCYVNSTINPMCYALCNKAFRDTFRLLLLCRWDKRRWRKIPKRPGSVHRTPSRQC
# [2] = biological target: T2, Muscarinic acetylcholine receptor M1 (Homo sapiens) (UniProt P11229); assay: Positive allosteric modulation of human muscarinic acetylcholine M1 receptor expressed in CHO cells assessed as potentiation of acetylcholine-induced calcium mobilization relative to acetylcholine; format: functional, cell-based
# T2 sequence (whole entry): T1 sequence (P11229 whole entry)
# [3] = Fraction unbound in plasma (unknown origin); format: ADME, cell-free
# [4] = Brain to plasma permeability coefficient, Kp of compound in Sprague-Dawley rat at 0.20 to 0.25 mg/kg administered as iv cassette dose measured at 0.25 hrs post dose; format: ADME, organism-based; settings: for Kp at 0.25 h: Sprague-Dawley, brain and plasma; for Kp: brain, 0.25 h
# [5] = Fraction unbound in rat plasma; format: ADME, cell-free
# [6] = Fraction unbound in human plasma; format: ADME, cell-free
# [7] = Brain to plasma permeability coefficient, Kp of compound in mouse; format: ADME
# [8] = biological target: T1, Muscarinic acetylcholine receptor M1; assay: Positive allosteric modulation of human muscarinic acetylcholine M1 receptor; format: functional
# [9] = biological target: T3, Muscarinic acetylcholine receptor M1 (Rattus norvegicus, UniProt P08482); assay: Positive allosteric modulation of rat muscarinic acetylcholine M1 receptor; format: functional
# T3 sequence (P08482 whole entry): T1 sequence (P11229 whole entry) with A5V, T254S, P309S, R320K, A337G, I413V
# [10] = tested on: Rattus norvegicus; assay: Cognitive enhancing effect in po dosed rat by novel object recognition test; format: functional; settings: read-out: MED
# [11] = biological target: T1, Muscarinic acetylcholine receptor M1; assay: Positive allosteric modulation of human muscarinic acetylcholine M1 receptor expressed in CHO-NFAT cells assessed as potentiation of acetylcholine-induced calcium mobilization after 4 hrs by CCF4-AM dye-based assay; format: functional, cell-based
Compound,EC50 ([1]; read-out: EC50) [µM],%max [2] [%],also measured
O=C(N[C@H]1CCCC[C@@H]1O)C1CN(Cc2ccc(-n3cccc3)cc2)c2ccccc2O1 (mixture of isomers),2.1,81,Fu [3]: < 0.001
O=C(Nc1ncccc1O)C1CN(Cc2ccc(-n3cccn3)cc2)c2ccccc2O1 (configuration not stated),0.71,75,EC50 ([1]; read-out: pEC50 (converted)): 0.692 µM; Kp at 0.25 h [4]: 0.11
O=C(N[C@H]1CCCC[C@@H]1O)C1CN(Cc2ccc(-n3cccn3)cc2)c2c(F)cccc2O1 (some centres not stated),3.18 to 3.2,76,EC50 ([1]; read-out: pEC50 (converted)): 3.09 µM; Kp [4]: 0.3 to 0.4; fraction unbound [5]: < 0.01; fraction unbound [6]: < 0.01
O=C(N[C@H]1CCCC[C@@H]1O)C1CN(Cc2ccc(-n3cccn3)cc2)c2cccc(F)c2O1 (some centres not stated),0.14,89,Kp [4]: 0.3 to 0.4
O=C(N[C@H]1CCCC[C@@H]1O)C1CN(Cc2ccc(-n3cccn3)cc2)c2ccccc2O1 (mixture of isomers),0.92,77,Kp [4]: 0.17; Kp [7]: 0.7; Fu [5]: > 0.11; fraction unbound [6]: ≥ 0.11
CC1(C(=O)N[C@H]2CCCC[C@@H]2O)CN(Cc2ccc(-n3cccn3)cc2)c2ccccc2O1 (mixture of isomers),7.3,61,
O=C(N[C@H]1CCCC[C@@H]1O)[C@H]1CN(Cc2ccc(-n3cccn3)cc2)c2ccccc2O1,,,EC50 [8]: 0.25 µM; EC50 [9]: 0.25 µM; minimal effective dose [10]: 3 mg/kg
O=C(NC1CCOCC1)C1CN(Cc2ccc(-n3cccn3)cc2)c2ccccc2O1 (configuration not stated),6.6,69,Kp at 0.25 h [4]: 1
Cn1cc(-c2ccc(CN3CC(C(=O)N[C@H]4CCCC[C@@H]4O)Oc4ccccc43)cn2)cn1 (some centres not stated),0.22,84,
C=Cc1ccc(CN2CC(C(=O)N[C@H]3CCCC[C@@H]3O)Oc3ccccc32)cn1 (some centres not stated),0.7,89,
O=C(Nc1ncccc1F)C1CN(Cc2ccc(-n3cccn3)cc2)c2ccccc2O1 (configuration not stated),2.3,81,
O=C(NCC(O)C(F)(F)F)C1CN(Cc2ccc(-n3cccn3)cc2)c2ccccc2O1 (configuration not stated),2.2,78,
COc1cccnc1NC(=O)C1CN(Cc2ccc(-n3cccn3)cc2)c2ccccc2O1 (configuration not stated),1.7,80,EC50 ([1]; read-out: pEC50 (converted)): 1.62 µM
O=C(N[C@H]1CCCC[C@@H]1O)C1CN(Cc2ccc(C(F)(F)F)nc2)c2ccccc2O1 (some centres not stated),3.7,84,
O=C(N[C@H]1CCCC[C@@H]1O)C1CN(Cc2ccc(-n3cccn3)nc2)c2ccccc2O1 (mixture of isomers),0.78,92,EC50 ([1]; read-out: pEC50 (converted)): 0.708 µM; Fu [3]: < 0.001
CC(O)(CNC(=O)C1CN(Cc2ccc(-n3cccn3)cc2)c2ccccc2O1)C1CC1 (configuration not stated),1.9,80,
CC(C)(O)CNC(=O)C1CN(Cc2ccc(-n3cccn3)cc2)c2ccccc2O1 (configuration not stated),6.4,60,EC50 ([1]; read-out: pEC50 (converted)): 5.89 µM
O=C(N[C@H]1CCCC[C@@H]1O)C1CN(Cc2ccc(Cl)nc2)c2ccccc2O1 (some centres not stated),7.6,73,EC50 ([1]; read-out: pEC50 (converted)): 7.08 µM
Cc1ccn(-c2ccc(CN3CC(C(=O)N[C@H]4CCCC[C@@H]4O)Oc4ccccc43)cn2)n1 (some centres not stated),0.67,91,

Compound,EC50 ([1]; read-out: EC50) [µM],%max [2] [%],also measured
O=C(N[C@H]1CCOC[C@@H]1O)C1CN(Cc2ccc(-n3cccn3)cc2)c2ccccc2O1 (some centres not stated),0.19,91,Kp at 0.25 h [4]: 0.08
O=C(NC1CCCCC1)C1CN(Cc2ccc(-n3cccn3)cc2)c2ccccc2O1 (configuration not stated),> 10,35,Kp at 0.25 h [4]: 1.1
O=C(N[C@H]1CCCC[C@@H]1O)C1CN(Cc2ccc(Br)nc2)c2ccccc2O1 (some centres not stated),1.2,91,EC50 ([1]; read-out: pEC50 (converted)): 1.07 µM
O=C(N[C@H]1CCCC[C@@H]1O)C1CN(Cc2ccc(C3CC3)nc2)c2ccccc2O1 (some centres not stated),2.5,90,EC50 ([1]; read-out: pEC50 (converted)): 2.24 µM
Cc1ccc(Cc2cc3c(=O)n([C@H]4CCCC[C@@H]4O)cnc3c3ccccc23)cn1 [MK-7622],,,EC50 [11]: < 0.1 µM
O=C(N[C@H]1CCCC[C@@H]1O)C1CN(Cc2ccc(-n3cccn3)cc2F)c2ccccc2O1 (mixture of isomers),1.6,88,Fu [3]: < 0.001
O=C(N[C@H]1CCCC[C@@H]1O)C1CN(Cc2ccc(-n3cccc3)nc2)c2ccccc2O1 (some centres not stated),0.5,94,
Cc1ccc(CN2CC(C(=O)N[C@H]3CCCC[C@@H]3O)Oc3ccccc32)cn1 (some centres not stated),0.85,85,EC50 ([1]; read-out: pEC50 (converted)): 0.813 µM
Cn1nccc1-c1ccc(CN2CC(C(=O)N[C@H]3CCCC[C@@H]3O)Oc3ccccc32)cn1 (some centres not stated),1.3,94,
O=C(N[C@H]1CCCC[C@@H]1O)C1CN(Cc2ccc(-n3cccn3)cc2)c2cc(F)ccc2O1 (some centres not stated),0.32,88,EC50 ([1]; read-out: pEC50 (converted)): 0.309 µM; Kp [4]: 0.3 to 0.4; fraction unbound [5]: < 0.01; fraction unbound [6]: < 0.01
O=C(N[C@H]1CCCC[C@@H]1O)C1CN(Cc2ccc(-n3cccn3)cc2)c2cc(Cl)ccc2O1 (mixture of isomers),2.8,86,Fu [3]: < 0.001
O=C(N[C@H]1CCCC[C@@H]1O)C1CN(Cc2ccc(-n3cccn3)cc2)c2ccc(F)cc2O1 (some centres not stated),2.2,80,Kp [4]: 0.3 to 0.4; fraction unbound [5]: < 0.01; fraction unbound [6]: < 0.01
O=C(N[C@H]1CCCC[C@@H]1O)C1CN(Cc2ccc(-n3ccnc3)nc2)c2ccccc2O1 (some centres not stated),0.29,87,
NC1CCCCC1NC(=O)C1CN(Cc2ccc(-n3cccn3)cc2)c2ccccc2O1 (configuration not stated),2.3,62,
CN(C)c1ccc(CN2CC(C(=O)N[C@H]3CCCC[C@@H]3O)Oc3ccccc32)cn1 (some centres not stated),3.8,89,
O=C(N[C@H]1CCCC[C@@H]1O)C1Cc2ccccc2N(Cc2ccc(-n3cccn3)cc2)C1 (mixture of isomers),1.4,75,
O=C(N[C@H]1CCCCC1=O)C1CN(Cc2ccc(-n3cccn3)cc2)c2ccccc2O1 (some centres not stated),2.7,78,
O=C(N[C@H]1CCC[C@@H]1O)C1CN(Cc2ccc(-n3cccn3)cc2)c2ccccc2O1 (some centres not stated),1.2,77,Kp at 0.25 h [4]: 0.09

# Reference: ChEMBL document CHEMBL4118174, “The discovery of VU0486846: steep SAR from a series of M1 PAMs based on a novel benzomorpholine core” (Bioorg Med Chem Lett, 2018)
